Test results as given in patent US12655116B2, “Substituted isophthalic acid diamides” (Bayer Aktiengesellschaft, priority 2020, dated 2026).

Key:
ABUTH [1] = experiment: Pre-emergence herbicidal action against ABUTH; assay type: in vivo, Abutilon theophrasti; conditions: Abutilon theophrasti, 504 h
Procedure, shortened: (§1)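 Pre-emergence soil-surface spray of formulated compound (WP or EC; 600 to 800 l/ha; 0.2% wetting agent) over seeds sown in sandy loam. After 3 weeks under greenhouse conditions, damage is estimated visually in percent against untreated plants.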

AMARE [2] = experiment: Post-emergence herbicidal action against AMARE; assay type: in vivo, Amaranthus retroflexus; conditions: Amaranthus retroflexus, 504 h, 20 g/ha, visual assessment about 3 weeks after treatment, 100% = plants have died, 0% = like control plants
Procedure, shortened: (§2)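 Spray, one-leaf stage: WP or EC compound in water, 600–800 l/ha, 0.2% wetting agent. Plants held about 3 weeks in the greenhouse, then visually rated in percent of kill compared with untreated controls.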

LOLRI [3] = experiment: Post-emergence herbicidal action against LOLRI; assay type: in vivo, Lolium rigidum; conditions: Lolium rigidum, 504 h, dosage 20 g/ha
Method: Seeds of monocotyledonous and dicotyledonous weed and crop plants are laid out in sandy loam soil in wood-fiber pots, covered with soil and cultivated in a greenhouse under good growth conditions. 2 to 3 weeks after sowing, the test plants are treated at the one-leaf stage. The compounds of the invention, formulated in the form of wettable powders (WP) or as emulsion concentrates (EC), are then sprayed onto the green parts of the plants in the form of an aqueous suspension or emulsion at a water application rate equivalent to 600 to 800 l/ha, with addition of 0.2% wetting agent. After the test plants have been left to stand in the greenhouse under optimal growth conditions for about 3 weeks, the action of the preparations is assessed visually in comparison to untreated controls (herbicidal action in percent (%): 100% activity=the plants have died, 0% activity=like control plants). […] The tables below illustrate, in an illustrative manner, the post-emergence herbicidal action of the compounds of the invention, the herbicidal activity being stated in percent.

DIGSA [4] = experiment: Pre-emergence herbicidal action against DIGSA; assay type: in vivo, Digitaria sanguinalis; conditions: Digitaria sanguinalis, 504 h
Procedure, shortened: as §1

VIOTR [5] = experiment: Post-emergence herbicidal action against VIOTR; assay type: in vivo, Viola tricolor; conditions: Viola tricolor, 504 h, 20 g/ha
Procedure, shortened: as §2

VERPE [6] = experiment: Post-emergence herbicidal action against VERPE; assay type: in vivo, Veronica persica; conditions: Veronica persica, 504 h
Procedure, shortened: as §2

PHBPU [7] = experiment: Post-emergence herbicidal action against PHBPU; assay type: in vivo, Pharbitis purpurea; conditions: Ipomoea purpurea, 504 h
Procedure, shortened: as §2

AVEFA = experiment: Post-emergence herbicidal action against AVEFA; assay type: in vivo, Avena fatua; conditions: Avena fatua, 504 h, 20 g/ha, visual assessment about 3 weeks after treatment, 100% = plants have died, 0% = like control plants
Procedure, shortened: as §2

ALOMY [8] = experiment: Pre-emergence herbicidal action against ALOMY; assay type: in vivo, Alopecurus myosuroides; conditions: Alopecurus myosuroides, 504 h; 80 g/ha, pre-emergence, scored visually after 3 weeks vs untreated controls (100% = plants have died, 0% = like control plants)
Procedure, shortened: as §1

VIOTR [9] = experiment: Pre-emergence herbicidal action against VIOTR; assay type: in vivo, Viola tricolor; conditions: Viola tricolor, 504 h
Procedure, shortened: as §1

SETVI [10] = experiment: Pre-emergence herbicidal action against SETVI; assay type: in vivo, Setaria viridis; conditions: Setaria viridis, 504 h, dosage 80 g/ha
Procedure, shortened: as §1

DIGSA [11] = experiment: Post-emergence herbicidal action against DIGSA; assay type: in vivo, Digitaria sanguinalis; conditions: Digitaria sanguinalis, 504 h
Procedure, shortened: as §2

VERPE [12] = experiment: Pre-emergence herbicidal action against VERPE; assay type: in vivo, Veronica persica; conditions: Veronica persica, 504 h
Procedure, shortened: as §1

MATIN [13] = experiment: Post-emergence herbicidal action against MATIN; assay type: in vivo, Matricaria inodora; conditions: Tripleurospermum inodorum, 504 h, dosage 20 g/ha
Procedure, shortened: as §2

MATIN [14] = experiment: Pre-emergence herbicidal action against MATIN; assay type: in vivo, Matricaria inodora; conditions: Tripleurospermum inodorum, 504 h
Procedure, shortened: as §1

POLCO = experiment: Pre-emergence herbicidal action against POLCO; assay type: in vivo, Polygonum convolvulus; conditions: Fallopia convolvulus, 504 h, dosage 80 g/ha
Procedure, shortened: as §1

PHBPU [15] = experiment: Pre-emergence herbicidal action against PHBPU; assay type: in vivo, Pharbitis purpurea; conditions: Ipomoea purpurea, 504 h, dosage 80 g/ha
Procedure, shortened: as §1

ABUTH [16] = experiment: Post-emergence herbicidal action against ABUTH; assay type: in vivo, Abutilon theophrasti; conditions: Abutilon theophrasti, 504 h, visual assessment about 3 weeks after treatment vs untreated controls
Procedure, shortened: as §2

AMARE [17] = experiment: Pre-emergence herbicidal action against AMARE; assay type: in vivo, Amaranthus retroflexus; conditions: Amaranthus retroflexus, 504 h, scored visually after 3 weeks vs untreated controls, 100% = plants have died, 0% = like control plants
Procedure, shortened: as §1

ECHCG [18] = experiment: Post-emergence herbicidal action against ECHCG; assay type: in vivo, Echinochloa crus-galli; conditions: Echinochloa crus-galli, 504 h, dosage 20 g/ha
Procedure, shortened: as §2

ECHCG [19] = experiment: Pre-emergence herbicidal action against ECHCG; assay type: in vivo, Echinochloa crus-galli; conditions: Echinochloa crus-galli, 504 h, 80 g/ha
Procedure, shortened: as §1

SETVI [20] = experiment: Post-emergence herbicidal action against SETVI; assay type: in vivo, Setaria viridis; conditions: Setaria viridis, 504 h, dosage 20 g/ha
Procedure, shortened: as §2

ALOMY [21] = experiment: Post-emergence herbicidal action against ALOMY; assay type: in vivo, Alopecurus myosuroides; conditions: Alopecurus myosuroides, 504 h, visual assessment about 3 weeks after treatment vs untreated controls
Procedure, shortened: as §2

LOLRI [22] = experiment: Pre-emergence herbicidal action against LOLRI; assay type: in vivo, Lolium rigidum; conditions: Lolium rigidum, 504 h, 80 g/ha
Procedure, shortened: as §1

## CNC(=O)c1c(C(F)(F)C(F)(F)F)ccc(C(=O)Nc2nnnn2C)c1Cl [Example 1-165]
ABUTH [1]; 80 g/ha, scored visually after 3 weeks vs untreated controls (100% = plants have died, 0% = like control plants)
  pest or weed control at 80 g/ha: 100%
ABUTH [1]; dosage 20 g/ha, scored visually after 3 weeks vs untreated controls, 100% = plants have died, 0% = like control plants, read-out: Pre-emergence action against ABUTH (herbicidal activity in percent)
  pest or weed control at 20 g/ha: 90%
AMARE [2]
  pest or weed control at 20 g/ha: 90%
LOLRI [3]
  pest or weed control at 20 g/ha: 80%
DIGSA [4]; dosage 20 g/ha
  pest or weed control at 20 g/ha: 100%
DIGSA [4]; dosage 80 g/ha
  pest or weed control at 80 g/ha: 100%
VIOTR [5]
  pest or weed control at 20 g/ha: 80%
VERPE [6]; 5 g/ha
  pest or weed control at 5 g/ha: 80%
VERPE [6]; 20 g/ha
  pest or weed control at 20 g/ha: 80%
PHBPU [7]; dosage 5 g/ha
  pest or weed control at 5 g/ha: 90%
PHBPU [7]; dosage 20 g/ha
  pest or weed control at 20 g/ha: 90%
AVEFA
  pest or weed control at 20 g/ha: 90%
ALOMY [8]
  pest or weed control at 80 g/ha: 100%
VIOTR [9]; dosage 20 g/ha
  pest or weed control at 20 g/ha: 90%
VIOTR [9]; dosage 80 g/ha
  pest or weed control at 80 g/ha: 100%
SETVI [10]
  pest or weed control at 80 g/ha: 100%
DIGSA [11]; 5 g/ha
  pest or weed control at 5 g/ha: 90%
DIGSA [11]; 20 g/ha
  pest or weed control at 20 g/ha: 90%
VERPE [12]; dosage 20 g/ha
  pest or weed control at 20 g/ha: 80%
VERPE [12]; dosage 80 g/ha
  pest or weed control at 80 g/ha: 100%
MATIN [13]
  pest or weed control at 20 g/ha: 80%
MATIN [14]; dosage 20 g/ha
  pest or weed control at 20 g/ha: 100%
MATIN [14]; dosage 80 g/ha
  pest or weed control at 80 g/ha: 100%
POLCO
  pest or weed control at 80 g/ha: 90%
PHBPU [15]
  pest or weed control at 80 g/ha: 100%
ABUTH [16]; dosage 5 g/ha
  pest or weed control at 5 g/ha: 90%
ABUTH [16]; dosage 20 g/ha
  pest or weed control at 20 g/ha: 90%
AMARE [17]; 20 g/ha
  pest or weed control at 20 g/ha: 100%
AMARE [17]; 80 g/ha
  pest or weed control at 80 g/ha: 100%
ECHCG [18]
  pest or weed control at 20 g/ha: 90%
ECHCG [19]
  pest or weed control at 80 g/ha: 100%
SETVI [20]
  pest or weed control at 20 g/ha: 90%
ALOMY [21]; dosage 5 g/ha
  pest or weed control at 5 g/ha: 90%
ALOMY [21]; dosage 20 g/ha
  pest or weed control at 20 g/ha: 100%
LOLRI [22]
  pest or weed control at 80 g/ha: 80%
